“And” between values parts separate entries of the source, which are not always exact repeats. Identical values can stand only once.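 Five concentrations, 48 hours, 96-well plates. GI50 = concentration required for 50% inhibition of growth.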 The source made the active and inactive calls. No stated cut-off is given here; in the data, active = GI50 up to about 1.1 µM and inactive = higher.
How the values were obtained:
Assay in all cases: DTP human tumour cell line panel, 48 h
M14 = system: M14
M19-MEL = system: M19-MEL
SNB-78 = system: SNB-78
HCC 2998 = system: HCC 2998
RXF 393 = system: RXF 393
MDA-N = system: MDA-N
HOP-62 = system: HOP-62
SN12C = system: SN12C
SF-539 = system: SF-539
Malme-3M = system: Malme-3M
786-0 = system: 786-0
MDA-MB-231 = system: MDA-MB-231
DLD-1 = system: DLD-1
KM-20L2 = system: KM-20L2
CCRF-CEM = system: CCRF-CEM
DMS-273 = system: DMS-273
LOX IMVI = system: LOX IMVI
ACHN = system: ACHN
NCI-H460 = system: NCI-H460
T47D = system: T47D
PC-3 = system: PC-3
XF498 = system: XF498
SNB-75 = system: SNB-75
SF-268 = system: SF-268
A549 = system: A549
DU-145 = system: DU-145
NCI/ADR-RES = system: NCI/ADR-RES
DMS-114 = system: DMS-114
HOP-18 = system: HOP-18
MDA-MB-435 = system: MDA-MB-435
SW-620 = system: SW-620
HCT-116 = system: HCT-116
TK-10 = system: TK-10
SK-MEL-2 = system: SK-MEL-2
UACC-257 = system: UACC-257
OVCAR-4 = system: OVCAR-4
NCI-H226 = system: NCI-H226
SNB-19 = system: SNB-19
HL-60 = system: HL-60
HCT-15 = system: HCT-15
KM12 = system: KM12
SK-MEL-5 = system: SK-MEL-5
NCI-H23 = system: NCI-H23
OVCAR-3 = system: OVCAR-3
UO-31 = system: UO-31
OVCAR-8 = system: OVCAR-8
MOLT-4 = system: MOLT-4
HT-29 = system: HT-29
SK-MEL-28 = system: SK-MEL-28
OVCAR-5 = system: OVCAR-5
SR = system: SR
SF-295 = system: SF-295
RPMI-8226 = system: RPMI-8226
CAKI-1 = system: CAKI-1
COLO 205 = system: COLO 205
NCI-H522 = system: NCI-H522
EKVX = system: EKVX
K562 = system: K562
UACC-62 = system: UACC-62
HOP-92 = system: HOP-92
U-251 = system: U-251
SK-OV-3 = system: SK-OV-3
IGROV-1 = system: IGROV-1
A498 = system: A498
MCF7 = system: MCF7
LXFL 529 = system: LXFL 529

Measured: GI50

Nc1ncnc2c1ncn2C1OC(CO)C(O)C1O (configuration not stated)
inactive: M14 > 100 µM | M19-MEL 333 µM | SNB-78 > 450 µM | HCC 2998 34.9 µM and 43.4 µM | RXF 393 104 µM | MDA-N > 100 µM | HOP-62 61.9 µM and 70.5 µM | SN12C 136 µM | SF-539 179 µM | Malme-3M 274 µM | 786-0 43.3 µM | MDA-MB-231 > 100 µM | DLD-1 > 373 µM | KM-20L2 234 µM | CCRF-CEM 36.7 µM and 34.3 µM | DMS-273 103 µM | LOX IMVI 84.3 µM and 44.2 µM | ACHN 40.6 µM | NCI-H460 22.3 µM | T47D 77.3 µM | PC-3 31 µM | XF498 > 450 µM | SNB-75 117 µM | SF-268 232 µM | A549 132 µM | DU-145 22.9 µM | NCI/ADR-RES 117 µM | DMS-114 68.1 µM | HOP-18 107 µM | MDA-MB-435 > 100 µM | SW-620 153 µM | HCT-116 106 µM and 58.2 µM | TK-10 > 100 µM | SK-MEL-2 97.1 µM

CCOC(=O)Oc1ccc2[nH]c3c(C)cc(N)c(C)c3c2c1
> 100 µM: HCT-15
inactive: M14 98.4 µM | UACC-257 > 100 µM | OVCAR-4 > 100 µM | NCI-H226 > 100 µM | M19-MEL > 100 µM | SNB-19 > 100 µM | HL-60 55.5 µM | SNB-78 > 100 µM | HCC 2998 > 100 µM | HOP-62 > 100 µM | SN12C > 100 µM | SF-539 > 100 µM | Malme-3M 87.7 µM | 786-0 > 100 µM | KM12 68.4 µM | DLD-1 > 100 µM | CCRF-CEM > 100 µM | DMS-273 > 100 µM | LOX IMVI > 100 µM | SK-MEL-5 > 100 µM | ACHN > 100 µM | NCI-H460 > 100 µM | NCI-H23 > 100 µM | OVCAR-3 > 100 µM | UO-31 > 100 µM | OVCAR-8 > 100 µM | MOLT-4 78.9 µM | XF498 > 100 µM | HT-29 > 100 µM | SNB-75 > 100 µM | SF-268 > 100 µM | A549 > 100 µM | SK-MEL-28 > 100 µM | OVCAR-5 > 100 µM | SR > 100 µM | SF-295 > 100 µM | RPMI-8226 72.3 µM | DMS-114 46.7 µM | HOP-18 > 100 µM | CAKI-1 > 100 µM | SW-620 > 100 µM | HCT-116 > 100 µM | TK-10 > 100 µM | COLO 205 > 100 µM | NCI-H522 > 100 µM | EKVX > 100 µM | K562 > 100 µM | SK-MEL-2 > 100 µM

CC(=O)Oc1cc2c(cc1OC(C)=O)OCC(c1ccc(C)cc1)C2 (configuration not stated)
inactive: UACC-257 21.4 µM | OVCAR-4 13 µM | NCI-H226 27.1 µM | M19-MEL 9.29 µM | SNB-19 31.4 µM | HL-60 2.61 µM | SNB-78 21.6 µM | HCC 2998 12.6 µM | RXF 393 17.5 µM | HOP-62 20.5 µM | SN12C 18.1 µM | SF-539 19.5 µM | UACC-62 11.7 µM | Malme-3M 19 µM | HOP-92 8.85 µM | KM12 21.6 µM | DLD-1 21.8 µM | U-251 9.91 µM | KM-20L2 25.1 µM | CCRF-CEM 4.07 µM | DMS-273 19.4 µM | LOX IMVI 18.7 µM | SK-MEL-5 6.12 µM | NCI-H460 15.1 µM | NCI-H23 15.9 µM | OVCAR-3 21.6 µM | UO-31 20.6 µM | OVCAR-8 26.8 µM | MOLT-4 7.19 µM | SK-OV-3 53.7 µM | IGROV-1 20.3 µM | A498 8.69 µM | XF498 15.4 µM | HT-29 29.2 µM | SNB-75 9.42 µM | SF-268 10.5 µM | A549 16 µM | SK-MEL-28 20 µM | OVCAR-5 33.5 µM | SF-295 28.7 µM | RPMI-8226 11.6 µM | MCF7 24.9 µM | NCI/ADR-RES 25.5 µM | DMS-114 4.94 µM | HOP-18 26.9 µM | CAKI-1 21.7 µM | SW-620 19.5 µM | HCT-116 20.7 µM | COLO 205 20.5 µM | NCI-H522 2.64 µM | EKVX 23.4 µM | K562 17.1 µM | SK-MEL-2 20 µM
19.6 µM: HCT-15

COc1cc2c(cc1OC)C(O)[C@H](Br)C(C)(C)O2 (some centres not stated)
> 100 µM: HCT-15
inactive: M14 > 100 µM | UACC-257 > 100 µM | OVCAR-4 > 100 µM | NCI-H226 > 100 µM | M19-MEL > 100 µM | SNB-19 > 100 µM | HL-60 > 100 µM | HCC 2998 > 100 µM | RXF 393 > 100 µM | HOP-62 > 100 µM | SN12C > 100 µM | SF-539 > 100 µM | UACC-62 > 100 µM | Malme-3M > 100 µM | HOP-92 > 100 µM | 786-0 > 100 µM | KM12 > 100 µM | DLD-1 > 100 µM | U-251 > 100 µM | KM-20L2 > 100 µM | CCRF-CEM > 100 µM | DMS-273 > 100 µM | LOX IMVI > 100 µM | SK-MEL-5 > 100 µM | ACHN > 100 µM | NCI-H460 > 100 µM | NCI-H23 > 100 µM | OVCAR-3 > 100 µM | UO-31 > 100 µM | OVCAR-8 > 100 µM | MOLT-4 > 100 µM | SK-OV-3 > 100 µM | IGROV-1 > 100 µM | XF498 > 100 µM | HT-29 > 100 µM | SNB-75 84.3 µM | SF-268 > 100 µM | A549 > 100 µM | SK-MEL-28 > 100 µM | OVCAR-5 > 100 µM | LXFL 529 > 100 µM | SR > 100 µM | SF-295 > 100 µM | RPMI-8226 > 100 µM | DMS-114 > 100 µM | HOP-18 > 100 µM | SW-620 > 100 µM | HCT-116 > 100 µM | TK-10 > 100 µM | COLO 205 > 100 µM | NCI-H522 > 100 µM | EKVX > 100 µM | K562 > 100 µM | SK-MEL-2 > 100 µM
